Test results: PubChem BioAssay AID1963862 (Molecular Pharmacology Branch, DTP, NCI, 2024)

System: KRAS patient-derived spheroids with HUVEC/MSC, viability
Experiment: Anticancer human tumor 941728-121-R-J1-PDC patient-derived lung adenocarcinoma cell line growth inhibition [KRAS2]
Settings: for viability, T/C: stronger effect = lower value; active = viability on the fitted dose curve at most 10% of control; inactive = the rest
Procedure, shortened: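 Combination screen of spheroid viability in tumor-cell co-cultures with endothelial (HUVEC) and mesenchymal stem cell stroma. Each agent was tested in half-log dilutions, topping at clinical Cmax or at 10 microM without a known Cmax.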

[1] = curve of first compound, second compound 0.0316 µM
[2] = curve of first compound, second compound 0.1 µM
[3] = curve of first compound, second compound 0.316 µM
[4] = curve of first compound, second compound 1 µM
[5] = curve of first compound, second compound 3.16 µM
[6] = second compound 0.0316 µM, first compound 0.01 µM
[7] = second compound 0.0316 µM, first compound 0.0316 µM
[8] = second compound 0.0316 µM, first compound 0.1 µM
[9] = second compound 0.1 µM, first compound 0.01 µM
[10] = second compound 0.1 µM, first compound 0.0316 µM
[11] = second compound 0.1 µM, first compound 0.1 µM
[12] = second compound 0.316 µM, first compound 0.01 µM
[13] = second compound 0.316 µM, first compound 0.0316 µM
[14] = second compound 0.316 µM, first compound 0.1 µM
[15] = second compound 1 µM, first compound 0.01 µM
[16] = second compound 1 µM, first compound 0.0316 µM
[17] = second compound 1 µM, first compound 0.1 µM
[18] = second compound 3.16 µM, first compound 0.01 µM
[19] = second compound 3.16 µM, first compound 0.0316 µM
[20] = second compound 3.16 µM, first compound 0.1 µM
[21] = second compound 0.0316 µM, first compound 0.316 µM
[22] = second compound 0.0316 µM, first compound 1 µM
[23] = second compound 0.0316 µM, first compound 3.16 µM
[24] = second compound 0.1 µM, first compound 0.316 µM
[25] = second compound 0.1 µM, first compound 1 µM
[26] = second compound 0.1 µM, first compound 3.16 µM
[27] = second compound 0.316 µM, first compound 0.316 µM
[28] = second compound 0.316 µM, first compound 1 µM
[29] = second compound 0.316 µM, first compound 3.16 µM
[30] = second compound 1 µM, first compound 0.316 µM
[31] = second compound 1 µM, first compound 1 µM
[32] = second compound 1 µM, first compound 3.16 µM
[33] = second compound 3.16 µM, first compound 0.316 µM
[34] = second compound 3.16 µM, first compound 1 µM
[35] = second compound 3.16 µM, first compound 3.16 µM
[36] = curve of first compound, second compound 10 µM
[37] = second compound 0.1 µM, first compound 10 µM
[38] = second compound 0.316 µM, first compound 10 µM
[39] = second compound 1 µM, first compound 10 µM
[40] = second compound 3.16 µM, first compound 10 µM
[41] = second compound 10 µM, first compound 0.0316 µM
[42] = second compound 10 µM, first compound 0.1 µM
[43] = second compound 10 µM, first compound 0.316 µM
[44] = second compound 10 µM, first compound 1 µM
[45] = second compound 10 µM, first compound 3.16 µM
[46] = second compound 10 µM, first compound 10 µM
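Also: spheroids exposed to agents for seven days before readout.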

CN(C)C/C=C/C(=O)Nc1cc2c(Nc3ccc(F)c(Cl)c3)ncnc2cc1O[C@H]1CCOC1 + C=CC(=O)N1CCN(c2nc(OCC3CCCN3C)nc3c2CCN(c2cccc4cccc(C)c24)C3)CC1CC#N
active: viability, T/C (second compound 3.16 µM, first compound 0.000316 µM) 1.16% | viability, T/C (second compound 3.16 µM, first compound 0.001 µM) 0.2% | viability, T/C (second compound 3.16 µM, first compound 0.00316 µM) 0.46% | viability, T/C [18] 0.19% | viability, T/C [19] 0.45% | viability, T/C [20] 1.8%
inactive: viability, T/C (second compound 0.0316 µM, first compound 0.000316 µM) 22.7% | viability, T/C (second compound 0.0316 µM, first compound 0.001 µM) 22.4% | viability, T/C (second compound 0.0316 µM, first compound 0.00316 µM) 22.2% | viability, T/C [6] 23.3% | viability, T/C [7] 20.5% | viability, T/C [8] 20.6% | viability, T/C (second compound 0.1 µM, first compound 0.000316 µM) 21.3% | viability, T/C (second compound 0.1 µM, first compound 0.001 µM) 19.3% | viability, T/C (second compound 0.1 µM, first compound 0.00316 µM) 18.8% | viability, T/C [9] 20.1% | viability, T/C [10] 20.4% | viability, T/C [11] 18.6% | viability, T/C (second compound 0.316 µM, first compound 0.000316 µM) 21.1% | viability, T/C (second compound 0.316 µM, first compound 0.001 µM) 20.9% | viability, T/C (second compound 0.316 µM, first compound 0.00316 µM) 21.4% | viability, T/C [12] 21.5% | viability, T/C [13] 20.5% | viability, T/C [14] 18.3% | viability, T/C (second compound 1 µM, first compound 0.000316 µM) 21.1% | viability, T/C (second compound 1 µM, first compound 0.001 µM) 21.2% | viability, T/C (second compound 1 µM, first compound 0.00316 µM) 20.9% | viability, T/C [15] 19.1% | viability, T/C [16] 19.2% | viability, T/C [17] 21.2%
< 0.316 nM: IC50 [1] | IC50 [2] | IC50 [3] | IC50 [4] | IC50 [5]

CC(=O)OC12COC1CC(O)C1(C)C(=O)C(O)C3=C(C)C(OC(=O)C(O)C(NC(=O)OC(C)(C)C)c4ccccc4)CC(O)(C(OC(=O)c4ccccc4)C21)C3(C)C (configuration not stated) + C=CC(=O)N1CCN(c2nc(OCC3CCCN3C)nc3c2CCN(c2cccc4cccc(C)c24)C3)CC1CC#N
inactive: viability, T/C [6] 28.2% | viability, T/C [7] 28.4% | viability, T/C [8] 26.8% | viability, T/C [21] 25.7% | viability, T/C [22] 29.1% | viability, T/C [23] 26.7% | viability, T/C [9] 24.6% | viability, T/C [10] 22.2% | viability, T/C [11] 21.9% | viability, T/C [24] 22.9% | viability, T/C [25] 24.6% | viability, T/C [26] 26.2% | viability, T/C [12] 22.8% | viability, T/C [13] 21.6% | viability, T/C [14] 21.1% | viability, T/C [27] 22.1% | viability, T/C [28] 21.1% | viability, T/C [29] 24.4% | viability, T/C [15] 21.2% | viability, T/C [16] 23.4% | viability, T/C [17] 21.1% | viability, T/C [30] 19.8% | viability, T/C [31] 21.7% | viability, T/C [32] 20.8% | viability, T/C [18] 27.9% | viability, T/C [19] 33.1% | viability, T/C [20] 26.4% | viability, T/C [33] 27.3% | viability, T/C [34] 26.9% | viability, T/C [35] 27.9%
< 10 nM: IC50 [1] | IC50 [2] | IC50 [3] | IC50 [4] | IC50 [5]

COC(=O)c1ccc2c(C(=Nc3ccc(N(C)C(=O)CN4CCN(C)CC4)cc3)c3ccccc3)c(O)[nH]c2c1 + COc1cc2nc(C)nc(NC(C)c3cc(N)cc(C(F)(F)F)c3)c2cc1OC1CCOC1
active: viability, T/C [40] 0.49% | viability, T/C [45] 0.62% | viability, T/C [46] 1.04%
10000 nM: IC50 [2]
inactive: viability, T/C [10] 108% | viability, T/C [11] 45.3% | viability, T/C [24] 46.4% | viability, T/C [25] 70.2% | viability, T/C [26] 46.2% | viability, T/C [37] 48.5% | viability, T/C [13] 45.5% | viability, T/C [14] 43.4% | viability, T/C [27] 40.5% | viability, T/C [28] 49.7% | viability, T/C [29] 42.7% | viability, T/C [38] 42.9% | viability, T/C [16] 42.4% | viability, T/C [17] 40.9% | viability, T/C [30] 37% | viability, T/C [31] 41.6% | viability, T/C [32] 35.1% | viability, T/C [39] 42.2% | viability, T/C [19] 43.5% | viability, T/C [20] 36.7% | viability, T/C [33] 41.7% | viability, T/C [34] 42.6% | viability, T/C [35] 22.6% | viability, T/C [41] 26.2% | viability, T/C [42] 21.7% | viability, T/C [43] 21.1% | viability, T/C [44] 16.9%
< 31.6 nM: IC50 [3] | IC50 [4] | IC50 [5] | IC50 [36]

C=CC(=O)N1CCN(c2nc(OCC3CCCN3C)nc3c2CCN(c2cccc4cccc(C)c24)C3)CC1CC#N (configuration not stated)
27.2% [middle of 17 runs]: viability, T/C (compound 1 µM)
< 31.6 nM: IC50 (compound alone, run of 07/12/2021) | IC50 (compound alone, run of 07/19/2021) | IC50 (compound alone, run of 07/26/2021)
inactive: viability, T/C (compound 0.1 µM) 30.3% [middle of 16 runs]

COc1cc(Nc2ncc3c(n2)-c2ccc(Cl)cc2C(c2c(F)cccc2OC)=NC3)ccc1C(=O)O + C=CC(=O)N1CCN(c2nc(OCC3CCCN3C)nc3c2CCN(c2cccc4cccc(C)c24)C3)CC1CC#N
< 31.6 nM: IC50 [1] | IC50 [2] | IC50 [3] | IC50 [4] | IC50 [5]
inactive: viability, T/C [7] 32.1% | viability, T/C [8] 29.5% | viability, T/C [21] 26.1% | viability, T/C [22] 26.3% | viability, T/C [23] 22.9% | viability, T/C (second compound 0.0316 µM, first compound 10 µM) 20.3% | viability, T/C [10] 33.6% | viability, T/C [11] 30.4% | viability, T/C [24] 25.6% | viability, T/C [25] 25.9% | viability, T/C [26] 22.8% | viability, T/C [37] 20.9% | viability, T/C [13] 30.4% | viability, T/C [14] 26.1% | viability, T/C [27] 26.8% | viability, T/C [28] 26.1% | viability, T/C [29] 22% | viability, T/C [38] 20.3% | viability, T/C [16] 26.5% | viability, T/C [17] 26.3% | viability, T/C [30] 27.1% | viability, T/C [31] 22.9% | viability, T/C [32] 23% | viability, T/C [39] 16.5%
active: viability, T/C [19] 0.53% | viability, T/C [20] 0.41% | viability, T/C [33] 0.87% | viability, T/C [34] 0.19% | viability, T/C [35] 0.26% | viability, T/C [40] 0.18%

Cn1nccc1Nc1nccc(-c2cc3c(s2)C(C)(C)N(CCN2CCOCC2)C3=O)n1
inactive: viability, T/C (compound 0.0316 µM) 90.5% [middle of 5 runs] | viability, T/C (compound 0.316 µM) 57.3% [middle of 5 runs] | viability, T/C (compound 1 µM) 48.8% [middle of 5 runs] | viability, T/C (compound 3.16 µM) 50.1% [middle of 5 runs] | viability, T/C (compound 10 µM) 51.3% [middle of 5 runs]

COc1cc(OC)cc(N(CCNC(C)C)c2ccc3ncc(-c4cnn(C)c4)nc3c2)c1
inactive: viability, T/C (compound 0.1 µM) 104% [middle of 5 runs] | viability, T/C (compound 0.316 µM) 92% [middle of 5 runs]

CC(C)NCC(C(=O)N1CCN(c2ncnc3c2C(C)CC3O)CC1)c1ccc(Cl)cc1 (configuration not stated) + CNCc1ccccc1-c1csc(C(C)Nc2nc(C)nc3cc(OC)c(OC)cc23)c1
active: viability, T/C [32] 6.11% | viability, T/C [39] 4.4% | viability, T/C [19] 0.08% | viability, T/C [20] 0.12% | viability, T/C [33] 0.11% | viability, T/C [34] 0.08% | viability, T/C [35] 0.04% | viability, T/C [40] 0.16% | viability, T/C [41] 0.16% | viability, T/C [42] 0.15% | viability, T/C [43] 0.12% | viability, T/C [44] 1.66% | viability, T/C [45] 0.11% | viability, T/C [46] 0.25%
< 31.6 nM: IC50 [3] | IC50 [4] | IC50 [5] | IC50 [36]
218 nM: IC50 [2]
inactive: viability, T/C [10] 68.6% | viability, T/C [11] 57% | viability, T/C [24] 47.9% | viability, T/C [25] 33.3% | viability, T/C [26] 28.1% | viability, T/C [37] 16.6% | viability, T/C [13] 42.3% | viability, T/C [14] 42.9% | viability, T/C [27] 29.1% | viability, T/C [28] 24.7% | viability, T/C [29] 22.4% | viability, T/C [38] 12.4% | viability, T/C [16] 23.9% | viability, T/C [17] 33.2% | viability, T/C [30] 21.2% | viability, T/C [31] 16.1%
